Values after ≈ are worked out from the molar mass of the structure shown. Read-outs that look alike come from different tables or passages of the source. Each block holds one compound with its values, some of them ahead of it.
Key:
Assay in all cases: minimum inhibitory concentration, agar dilution assay
Format in all cases: cell-based
[1] = tested on: Alcaligenes faecalis A 1; details: read-out: minimum inhibitory concentration
Procedure: (§1) The antibiotic activities shown in Tables I-1 to I-8 above were determined in the following manner.
(§2) The minimum inhibitory concentrations of the compounds of formula (I-a-1) or (I-b-1) in Tables I-1 to I-7 and the known compounds in Table I-8 on the various microorganisms shown in the above tables were measured by an agar dilution assay method using a brain heart infusion agar medium "Difco" (a product of Difco Laboratories Inc.)
(§3) A sample of the test compound was dissolved in sterile distilled water and diluted to prepare a two-fold dilution series of the compound solution. In a petri plate of 9 cm diameter, 1 ml of the compound solution was added to 9 ml of molten sterile heart infusion agar medium (Difco Laboratories Inc.) at about 60° C. to prepare the compound-containing agar plate. An overnight culture of each test organism indicated in the above table which was prepared by stationary cultivation in Trypto-Soy broth (Eiken Chemi. Co., Ltd.) at 35° C. for 18 to 20 hours, was diluted with the Trypto-Soy broth to give approximately 10^8 cells/ml and the diluted inoculum was inoculated onto the compound-containing agar plates. After cultivating the plates at 35° C. for 20 hours, the growth of the organism was observed. The minimum concentration of the compound at which no growth of the microorganism was noted was determined, and defined as the minimum inhibitory concentration of the test compound.

[2] = tested on: Bacillus subtilis ATCC 6633; details: read-out: minimum inhibitory concentration
Procedure: as §1, §2, §3

[3] = tested on: Citrobacter freundii GN 346; details: read-out: minimum inhibitory concentration
Procedure: as §1, §2, §3

[4] = tested on: Comamonas terrigena B-996; details: read-out: minimum inhibitory concentration
Procedure: as §1, §2, §3

[5] = tested on: Enterobacter aerogenes E19; details: Klebsiella aerogenes, read-out: minimum inhibitory concentration
Procedure: as §1, §2, §3

[6] = tested on: Enterobacter cloacae 45; details: read-out: minimum inhibitory concentration
Procedure: as §1, §2, §3

[7] = tested on: Enterobacter sp. E8; details: read-out: minimum inhibitory concentration
Procedure: as §1, §2, §3

[8] = tested on: Escherichia coli K-12; details: read-out: minimum inhibitory concentration
Procedure: as §1, §2, §3

[9] = tested on: Escherichia coli RGN 823; details: read-out: minimum inhibitory concentration
Procedure: as §1, §2, §3

[10] = tested on: Klebsiella pneumoniae K-13; details: read-out: minimum inhibitory concentration
Procedure: as §1, §2, §3

[11] = tested on: Proteus mirabilis P6; details: read-out: minimum inhibitory concentration
Procedure: as §1, §2, §3

[12] = tested on: Proteus rettgeri P7; details: Providencia rettgeri, read-out: minimum inhibitory concentration
Procedure: as §1, §2, §3

[13] = tested on: Proteus sp. P22; details: read-out: minimum inhibitory concentration
Procedure: as §1, §2, §3

[14] = tested on: Proteus vulgaris GN76; details: read-out: minimum inhibitory concentration
Procedure: as §1, §2, §3

[15] = tested on: Providencia sp. P8; details: read-out: minimum inhibitory concentration
Procedure: as §1, §2, §3

[16] = tested on: Pseudomonas aeruginosa IFO3445; details: read-out: minimum inhibitory concentration
Procedure: as §1, §2, §3

[17] = tested on: Pseudomonas aeruginosa NCTC10490; details: read-out: minimum inhibitory concentration
Procedure: as §1, §2, §3

[18] = tested on: Sarcina lutea; details: Micrococcus luteus, read-out: minimum inhibitory concentration
Procedure: as §1, §2, §3

[19] = tested on: Serratia marcescens S18; details: read-out: minimum inhibitory concentration
Procedure: as §1, §2, §3

[20] = tested on: Serratia marcescens T55; details: read-out: minimum inhibitory concentration
Procedure: as §1, §2, §3

[21] = tested on: Staphylococcus aureus FDA 209P; details: FDA209P, read-out: minimum inhibitory concentration
Procedure: as §1, §2, §3

[22] = tested on: Staphylococcus aureus Russell; details: read-out: minimum inhibitory concentration
Procedure: as §1, §2, §3

[23] = tested on: Staphylococcus aureus Smith; details: read-out: minimum inhibitory concentration
Procedure: as §1, §2, §3

[24] = tested on: Staphylococcus epidermidis; details: read-out: minimum inhibitory concentration
Procedure: as §1, §2, §3

[25] = A1, agar dilution, 35° C., 20 hours
[26] = ATCC6633, agar dilution, 35° C., 20 hours
[27] = GN346, agar dilution, 35° C., 20 hours
[28] = B996, agar dilution, 35° C., 20 hours
[29] = E19, agar dilution, 35° C., 20 hours
[30] = Enterobacter cloacae, 45, agar dilution, 35° C., 20 hours
[31] = SP.E8, agar dilution, 35° C., 20 hours
[32] = K12, agar dilution, 35° C., 20 hours
[33] = RGN823, agar dilution, 35° C., 20 hours
[34] = K13, agar dilution, 35° C., 20 hours
[35] = P6, agar dilution, 35° C., 20 hours
[36] = P7, agar dilution, 35° C., 20 hours
[37] = agar dilution, 35° C., 20 hours
[38] = GN76, agar dilution, 35° C., 20 hours
[39] = SP.P8, agar dilution, 35° C., 20 hours
[40] = IFO3445, agar dilution, 35° C., 20 hours
[41] = NCTC10490, agar dilution, 35° C., 20 hours
[42] = S18, agar dilution, 35° C., 20 hours
[43] = T55, agar dilution, 35° C., 20 hours

MIC [1, 25]: 6.25 µg/mL (≈ 22.9 µM)
MIC [2, 26]: 6.25 µg/mL (≈ 22.9 µM)
MIC [3, 27]: 12.5 µg/mL (≈ 45.7 µM)
MIC [4, 28]: 0.1 µg/mL (≈ 0.366 µM)
MIC [5, 29]: 12.5 µg/mL (≈ 45.7 µM)
MIC [6, 30]: 6.25 µg/mL (≈ 22.9 µM)
MIC [7, 31]: 6.25 µg/mL (≈ 22.9 µM)
MIC [8, 32]: 3.13 µg/mL (≈ 11.5 µM)
MIC [9, 33]: 12.5 µg/mL (≈ 45.7 µM)
MIC [10, 34]: 25 µg/mL (≈ 91.5 µM)
MIC [11, 35]: 50 µg/mL (≈ 183 µM)
MIC [12, 36]: 50 µg/mL (≈ 183 µM)
MIC [13, 37]: 100 µg/mL (≈ 366 µM)
MIC [14, 38]: 50 µg/mL (≈ 183 µM)
MIC [15, 39]: 6.25 µg/mL (≈ 22.9 µM)
MIC [16, 40]: 12.5 µg/mL (≈ 45.7 µM)
MIC [17, 41]: 12.5 µg/mL (≈ 45.7 µM)
MIC [18, 37]: 1.56 µg/mL (≈ 5.71 µM)
MIC [19, 42]: 25 µg/mL (≈ 91.5 µM)
MIC [20, 43]: 50 µg/mL (≈ 183 µM)
MIC [21, 37]: 0.39 µg/mL (≈ 1.43 µM)
MIC [22, 37]: 3.13 µg/mL (≈ 11.5 µM)
MIC [23, 37]: 3.13 µg/mL (≈ 11.5 µM)
MIC [24, 37]: 3.13 µg/mL (≈ 11.5 µM)
SMILES: CC(O)[C@H]1C(=O)N2C(C(=O)O)=C(SCCO)C[C@H]12 (stereo partly drawn) [R1 --OH*, R21 --CH2 CH2 OH]

SMILES: CCC1C(=O)N2C(C(=O)[O-])=C(Sc3ccccc3)CC12.[Na+] (stereo not drawn)
MIC ([1]; A1, 20 h): 4.7 µg/mL
MIC ([2]; ATCC6633, 20 h): 0.07 µg/mL
MIC ([3]; GN346, 20 h): 150 µg/mL
MIC ([4]; B996, 20 h): < 0.01 µg/mL
MIC ([5]; E19, 20 h): 150 µg/mL
MIC ([6]; Enterobacter cloacae, 45, 20 h): 150 µg/mL
MIC ([7]; SP.E8, 20 h): 75 µg/mL
MIC ([8]; K12, 20 h): 37.5 µg/mL
MIC ([9]; RGN823, 20 h): 37.5 µg/mL
MIC ([10]; K13, 20 h): > 150 µg/mL
MIC ([11]; P6, 20 h): 75 µg/mL
MIC ([12]; P7, 20 h): 75 µg/mL
MIC ([13]; 20 h): 75 µg/mL
MIC ([14]; GN76, 20 h): 150 µg/mL
MIC ([15]; SP.P8, 20 h): 18.8 µg/mL
MIC ([16]; IFO3445, 20 h): 18.8 µg/mL
MIC ([17]; NCTC10490, 20 h): 4.7 µg/mL
MIC ([18]; 20 h): < 0.01 µg/mL
MIC ([19]; S18, 20 h): 75 µg/mL
MIC ([20]; T55, 20 h): 150 µg/mL
MIC ([21]; 20 h): < 0.01 µg/mL
MIC ([22]; 20 h): < 0.01 µg/mL
MIC ([23]; 20 h): 0.1 µg/mL
MIC ([24]; 20 h): < 0.01 µg/mL

MIC [1, 25]: 1.56 µg/mL (≈ 5.01 µM)
MIC [2, 26]: 0.013 µg/mL (≈ 0.0417 µM)
MIC [3, 27]: 100 µg/mL (≈ 321 µM)
MIC [4, 28]: < 0.007 µg/mL
MIC [5, 29]: 50 µg/mL (≈ 161 µM)
MIC [6, 30]: 50 µg/mL (≈ 161 µM)
MIC [7, 31]: 12.5 µg/mL (≈ 40.1 µM)
MIC [8, 32]: 12.5 µg/mL (≈ 40.1 µM)
MIC [9, 33]: 100 µg/mL (≈ 321 µM)
MIC [10, 34]: > 100 µg/mL
MIC [11, 35]: 6.25 µg/mL (≈ 20.1 µM)
MIC [12, 36]: 100 µg/mL (≈ 321 µM)
MIC [13, 37]: > 100 µg/mL
MIC [14, 38]: > 100 µg/mL
MIC [15, 39]: 25 µg/mL (≈ 80.3 µM)
MIC [16, 40]: > 100 µg/mL
MIC [17, 41]: 50 µg/mL (≈ 161 µM)
MIC [18, 37]: < 0.007 µg/mL
MIC [19, 42]: > 100 µg/mL
MIC [20, 43]: > 100 µg/mL
MIC [21, 37]: 0.013 µg/mL (≈ 0.0417 µM)
MIC [22, 37]: 0.013 µg/mL (≈ 0.0417 µM)
MIC [23, 37]: 0.05 µg/mL (≈ 0.161 µM)
MIC [24, 37]: 0.05 µg/mL (≈ 0.161 µM)
SMILES: CC(O)C1C(=O)N2C(C(=O)O)=C(SC3CCCCC3)CC12 (stereo not drawn)

MIC [1, 25]: 1.56 µg/mL (≈ 5.75 µM)
MIC [2, 26]: 0.39 µg/mL (≈ 1.44 µM)
MIC [3, 27]: 12.5 µg/mL (≈ 46.1 µM)
MIC [4, 28]: 0.05 µg/mL (≈ 0.184 µM)
MIC [5, 29]: 12.5 µg/mL (≈ 46.1 µM)
MIC [6, 30]: 25 µg/mL (≈ 92.1 µM)
MIC [7, 31]: 12.5 µg/mL (≈ 46.1 µM)
MIC [8, 32]: 12.5 µg/mL (≈ 46.1 µM)
MIC [9, 33]: 12.5 µg/mL (≈ 46.1 µM)
MIC [10, 34]: 12.5 µg/mL (≈ 46.1 µM)
MIC [11, 35]: 25 µg/mL (≈ 92.1 µM)
MIC [12, 36]: 12.5 µg/mL (≈ 46.1 µM)
MIC [13, 37]: 50 µg/mL (≈ 184 µM)
MIC [14, 38]: 25 µg/mL (≈ 92.1 µM)
MIC [15, 39]: 6.25 µg/mL (≈ 23 µM)
MIC [16, 40]: 12.5 µg/mL (≈ 46.1 µM)
MIC [17, 41]: 25 µg/mL (≈ 92.1 µM)
MIC [18, 37]: 0.39 µg/mL (≈ 1.44 µM)
MIC [19, 42]: 12.5 µg/mL (≈ 46.1 µM)
MIC [20, 43]: 50 µg/mL (≈ 184 µM)
MIC [21, 37]: 0.2 µg/mL (≈ 0.737 µM)
MIC [22, 37]: 0.39 µg/mL (≈ 1.44 µM)
MIC [23, 37]: 0.39 µg/mL (≈ 1.44 µM)
MIC [24, 37]: 0.39 µg/mL (≈ 1.44 µM)
SMILES: CC(C)C1C(=O)N2C(C(=O)O)=C(SCCO)CC12 (stereo not drawn) [R1 --CH3, R21 --CH2 CH2 OH]

— patent US4337199A, “Antibiotic β-lactam compounds, production thereof, and their use as antimicrobial agent” (Sanraku-Ocean Co., Ltd., priority 1978, dated 1982)
